Measurements from patent US8192962B2, “Processes for detecting toxic substances” (Daikin Industries, Ltd., priority 2001, dated 2012).

Tested on: Unknown protein yeast genes
Experiment: DNA chip mRNA expression in yeast, unknown protein yeast genes (Table 1)
Type: cell-based, Saccharomyces cerevisiae S288C
Procedure: Yeast (Saccharomyces cerevisiae S288C (α SUC2mal mel gap2 CUP1)) were incubated at 25° C. on YPD medium (yeast extract 1%, polypepton 2%, glucose 2%). One of toxic chemical substances was added to the cells at logarithmic growth phase, and the cells were further incubated for two hours. Cells were cultured without any chemical substance in the same condition, and were used as control. Concentrations of the chemical substances were defined to inhibit the growth of the yeast but not lead to death.
After completion of the incubation, the culture was centrifuged to collect the cells. To the cells, sodium acetate buffer (50 mM sodium acetate, 10 mM EDTA, 1% SDS) was added, and the mixture was shaken at 65° C. for five minutes, followed by returning to room temperature, and obtaining the supernatant, of which the procedures were repeated two times. To the supernatant, ½ amount of a solution of phenol/chloroform was added, and the mixture was centrifuged to give a supernatant, which was added with an equal amount of chloroform, and the mixture was centrifuged to give a supernatant. To the supernatant, an equal amount of isopropanol containing 0.3 M sodium acetate was added, and the mixture was allowed to stand at room temperature for 30 minutes, after which the mixture was centrifuged to give a sediment of the whole RNAs. Seventy % ethanol was added to the sediment, and the mixture was again centrifuged to give a sediment, which was then dried and dissolved in water. mRNA was isolated from the whole RNAs as followings. In view of the fact that a poly A chain is attached to the 3′ terminus of mRNA, a polynucleotide having a poly T structure which was immobilized on the surface of latex beads was used to trap the mRNA, and then the mRNA was washed and eluted with spine column (Oligotex-dT30<Super>mRNA Purification Kit, Takara). Reverse transcription of the mRNA was conducted with a reverse transcriptase (Super Script II Reverse Transcriptase; catalogue No. 18064-014, GibcoBRL) using fluorescence-labeled nucleotides to give cDNAs that were introduced with Cy3-dUTP or Cy5-dUTP during the reverse transcription.
The labeled cDNAs were dissolved in TE buffer (10mM Tris-HCl/1 mM EDTA, pH8.0), and the solution was dropped on the DNA chip containing the whole genes of yeast (DNA Chip Research Inc. Japan) so that the cDNAs were hybridized on the DNA chip at 65° C. for over 12 hours. The fluoresces intensity of the DNA chip was read with a scanner, and the ratio relative to the fluorescence intensity resulting from the absence of chemical substance was estimated as the following, which is shown in Tables 1 to 9: […]

**Q.** How did the “The level of expressed mRNA in the presence of chemical substance/The level of expressed mRNA in the absence of chemical substance” value (yeast gene YAL053W, incubated two hours with chemical substance) turn out when `CCCCCCCCCCCCc1ccc(S(=O)(=O)[O-])cc1.[Na+]` [(17), sodium dodecylbenzosulfonate] was run?
**A.** The value was 1.2.

**Q.** What about the “The level of expressed mRNA in the presence of chemical substance/The level of expressed mRNA in the absence of chemical substance” value (yeast gene YBL048W) of the same compound?
**A.** The value was 1.3.

**Q.** And the “The level of expressed mRNA in the presence of chemical substance/The level of expressed mRNA in the absence of chemical substance” value (yeast gene YBL107C)?
**A.** The value was 0.9.

**Q.** What about the “The level of expressed mRNA in the presence of chemical substance/The level of expressed mRNA in the absence of chemical substance” value (yeast gene YDL072C, incubated two hours with chemical substance) of the same compound?
**A.** The value was 1.6.

**Q.** What about the “The level of expressed mRNA in the presence of chemical substance/The level of expressed mRNA in the absence of chemical substance” value (yeast gene YDL204W, incubated two hours with chemical substance) of the same compound?
**A.** The value was 1.8.

**Q.** And the “The level of expressed mRNA in the presence of chemical substance/The level of expressed mRNA in the absence of chemical substance” value (yeast gene YDL222C, incubated two hours with chemical substance)?
**A.** The value was 0.9.

**Q.** What about the “The level of expressed mRNA in the presence of chemical substance/The level of expressed mRNA in the absence of chemical substance” value (yeast gene YDR330W, incubated two hours with chemical substance) of the same compound?
**A.** The value was 1.5.

**Q.** What about the “The level of expressed mRNA in the presence of chemical substance/The level of expressed mRNA in the absence of chemical substance” value (yeast gene YDR411C, incubated two hours with chemical substance) of the same compound?
**A.** The value was 1.5.

**Q.** And the “The level of expressed mRNA in the presence of chemical substance/The level of expressed mRNA in the absence of chemical substance” value (yeast gene YDR511W, incubated two hours with chemical substance)?
**A.** The value was 1.3.

**Q.** What about the “The level of expressed mRNA in the presence of chemical substance/The level of expressed mRNA in the absence of chemical substance” value (yeast gene YDR545W, incubated two hours with chemical substance) of the same compound?
**A.** The value was 0.9.

**Q.** What about the “The level of expressed mRNA in the presence of chemical substance/The level of expressed mRNA in the absence of chemical substance” value (yeast gene YEL001C, incubated two hours with chemical substance) of the same compound?
**A.** The value was 0.7.

**Q.** What about the “The level of expressed mRNA in the presence of chemical substance/The level of expressed mRNA in the absence of chemical substance” value (yeast gene YER004W, incubated two hours with chemical substance) of the same compound?
**A.** The value was 1.4.

**Q.** What about the “The level of expressed mRNA in the presence of chemical substance/The level of expressed mRNA in the absence of chemical substance” value (yeast gene YER035W, incubated two hours with chemical substance) of the same compound?
**A.** Its value is 2.2.

**Q.** And the “The level of expressed mRNA in the presence of chemical substance/The level of expressed mRNA in the absence of chemical substance” value (yeast gene YER079W, incubated two hours with chemical substance)?
**A.** The value was 1.0.

**Q.** And the “The level of expressed mRNA in the presence of chemical substance/The level of expressed mRNA in the absence of chemical substance” value (yeast gene YER106W, incubated two hours with chemical substance)?
**A.** Its value is 0.8.

**Q.** What about the “The level of expressed mRNA in the presence of chemical substance/The level of expressed mRNA in the absence of chemical substance” value (yeast gene YER158C, incubated two hours with chemical substance) of the same compound?
**A.** Its value is 1.6.

**Q.** What about the “The level of expressed mRNA in the presence of chemical substance/The level of expressed mRNA in the absence of chemical substance” value (yeast gene YER163C, incubated two hours with chemical substance) of the same compound?
**A.** The value was 1.2.

**Q.** What about the “The level of expressed mRNA in the presence of chemical substance/The level of expressed mRNA in the absence of chemical substance” value (yeast gene YER175C, incubated two hours with chemical substance) of the same compound?
**A.** Its value is 0.9.

**Q.** And the “The level of expressed mRNA in the presence of chemical substance/The level of expressed mRNA in the absence of chemical substance” value (yeast gene YFL006W, incubated two hours with chemical substance)?
**A.** Its value is 1.0.

**Q.** And the “The level of expressed mRNA in the presence of chemical substance/The level of expressed mRNA in the absence of chemical substance” value (yeast gene YFL010C, incubated two hours with chemical substance)?
**A.** The value was 1.9.

**Q.** What about the “The level of expressed mRNA in the presence of chemical substance/The level of expressed mRNA in the absence of chemical substance” value (yeast gene YFL024C) of the same compound?
**A.** The value was 0.9.

**Q.** And the “The level of expressed mRNA in the presence of chemical substance/The level of expressed mRNA in the absence of chemical substance” value (yeast gene YFL032W, incubated two hours with chemical substance)?
**A.** Its value is 1.7.

**Q.** And the “The level of expressed mRNA in the presence of chemical substance/The level of expressed mRNA in the absence of chemical substance” value (yeast gene YGL037C, incubated two hours with chemical substance)?
**A.** Its value is 1.3.

**Q.** What about the “The level of expressed mRNA in the presence of chemical substance/The level of expressed mRNA in the absence of chemical substance” value (yeast gene YGL047W, incubated two hours with chemical substance) of the same compound?
**A.** Its value is 1.1.

**Q.** And the “The level of expressed mRNA in the presence of chemical substance/The level of expressed mRNA in the absence of chemical substance” value (yeast gene YGL053W, incubated two hours with chemical substance)?
**A.** Its value is 2.2.

**Q.** What about the “The level of expressed mRNA in the presence of chemical substance/The level of expressed mRNA in the absence of chemical substance” value (yeast gene YGL121C) of the same compound?
**A.** Its value is 2.7.

**Q.** What about the “The level of expressed mRNA in the presence of chemical substance/The level of expressed mRNA in the absence of chemical substance” value (yeast gene YGL199C, incubated two hours with chemical substance) of the same compound?
**A.** The value was 1.2.

**Q.** What about the “The level of expressed mRNA in the presence of chemical substance/The level of expressed mRNA in the absence of chemical substance” value (yeast gene YGR101W, incubated two hours with chemical substance) of the same compound?
**A.** Its value is 1.0.

**Q.** What about the “The level of expressed mRNA in the presence of chemical substance/The level of expressed mRNA in the absence of chemical substance” value (yeast gene YGR110W) of the same compound?
**A.** The value was 0.9.

**Q.** And the “The level of expressed mRNA in the presence of chemical substance/The level of expressed mRNA in the absence of chemical substance” value (yeast gene YGR130C, incubated two hours with chemical substance)?
**A.** Its value is 1.3.

**Q.** What about the “The level of expressed mRNA in the presence of chemical substance/The level of expressed mRNA in the absence of chemical substance” value (yeast gene YGR154C, incubated two hours with chemical substance) of the same compound?
**A.** Its value is 1.0.

**Q.** What about the “The level of expressed mRNA in the presence of chemical substance/The level of expressed mRNA in the absence of chemical substance” value (yeast gene YGR221C, incubated two hours with chemical substance) of the same compound?
**A.** The value was 1.3.

**Q.** What about the “The level of expressed mRNA in the presence of chemical substance/The level of expressed mRNA in the absence of chemical substance” value (yeast gene YHR138C, incubated two hours with chemical substance) of the same compound?
**A.** The value was 5.0.

**Q.** What about the “The level of expressed mRNA in the presence of chemical substance/The level of expressed mRNA in the absence of chemical substance” value (yeast gene YHR199C, incubated two hours with chemical substance) of the same compound?
**A.** The value was 1.1.

**Q.** What about the “The level of expressed mRNA in the presence of chemical substance/The level of expressed mRNA in the absence of chemical substance” value (yeast gene YIL023C, incubated two hours with chemical substance) of the same compound?
**A.** The value was 1.2.

**Q.** What about the “The level of expressed mRNA in the presence of chemical substance/The level of expressed mRNA in the absence of chemical substance” value (yeast gene YIL041W, incubated two hours with chemical substance) of the same compound?
**A.** Its value is 0.8.

**Q.** What about the “The level of expressed mRNA in the presence of chemical substance/The level of expressed mRNA in the absence of chemical substance” value (yeast gene YIL087C, incubated two hours with chemical substance) of the same compound?
**A.** The value was 1.7.

**Q.** What about the “The level of expressed mRNA in the presence of chemical substance/The level of expressed mRNA in the absence of chemical substance” value (yeast gene YJL057C, incubated two hours with chemical substance) of the same compound?
**A.** Its value is 1.4.

**Q.** What about the “The level of expressed mRNA in the presence of chemical substance/The level of expressed mRNA in the absence of chemical substance” value (yeast gene YJL066C, incubated two hours with chemical substance) of the same compound?
**A.** The value was 1.4.

**Q.** And the “The level of expressed mRNA in the presence of chemical substance/The level of expressed mRNA in the absence of chemical substance” value (yeast gene YJL082W, incubated two hours with chemical substance)?
**A.** The value was 0.6.

**Q.** What about the “The level of expressed mRNA in the presence of chemical substance/The level of expressed mRNA in the absence of chemical substance” value (yeast gene YJL151C, incubated two hours with chemical substance) of the same compound?
**A.** Its value is 3.5.

**Q.** And the “The level of expressed mRNA in the presence of chemical substance/The level of expressed mRNA in the absence of chemical substance” value (yeast gene YJL152W, incubated two hours with chemical substance)?
**A.** The value was 2.5.

**Q.** What about the “The level of expressed mRNA in the presence of chemical substance/The level of expressed mRNA in the absence of chemical substance” value (yeast gene YJL161W, incubated two hours with chemical substance) of the same compound?
**A.** Its value is 1.9.

**Q.** What about the “The level of expressed mRNA in the presence of chemical substance/The level of expressed mRNA in the absence of chemical substance” value (yeast gene YJL171C, incubated two hours with chemical substance) of the same compound?
**A.** Its value is 3.6.

**Q.** What about the “The level of expressed mRNA in the presence of chemical substance/The level of expressed mRNA in the absence of chemical substance” value (yeast gene YJR008W, incubated two hours with chemical substance) of the same compound?
**A.** The value was 1.5.

**Q.** And the “The level of expressed mRNA in the presence of chemical substance/The level of expressed mRNA in the absence of chemical substance” value (yeast gene YJR054W, incubated two hours with chemical substance)?
**A.** Its value is 0.9.

**Q.** And the “The level of expressed mRNA in the presence of chemical substance/The level of expressed mRNA in the absence of chemical substance” value (yeast gene YKL071W)?
**A.** Its value is 1.0.

**Q.** What about the “The level of expressed mRNA in the presence of chemical substance/The level of expressed mRNA in the absence of chemical substance” value (yeast gene YKL086W, incubated two hours with chemical substance) of the same compound?
**A.** The value was 0.9.

**Q.** What about the “The level of expressed mRNA in the presence of chemical substance/The level of expressed mRNA in the absence of chemical substance” value (yeast gene YKL151C, incubated two hours with chemical substance) of the same compound?
**A.** The value was 1.4.

**Q.** And the “The level of expressed mRNA in the presence of chemical substance/The level of expressed mRNA in the absence of chemical substance” value (yeast gene YKL153W, incubated two hours with chemical substance)?
**A.** Its value is 0.9.
